Experimental data as given in patent US12617773B2, “Azetidin-3-ylmethanol derivatives as CCR6 receptor modulators” (Idorsia Pharmaceuticals Ltd, priority 2020, dated 2026).

target: T1, human CCR6 (Homo sapiens, UniProt P51684); test: FLIPR assay (inhibition of CCL20-induced calcium signal); format: cell-based; settings: HEK-293 cells expressing human CCR6; mean values where determined several times; read-out: FLIPR IC50
T1 construct: expressed in transfected cells; host or cells: HEK-293
T1 sequence (P51684 1-374): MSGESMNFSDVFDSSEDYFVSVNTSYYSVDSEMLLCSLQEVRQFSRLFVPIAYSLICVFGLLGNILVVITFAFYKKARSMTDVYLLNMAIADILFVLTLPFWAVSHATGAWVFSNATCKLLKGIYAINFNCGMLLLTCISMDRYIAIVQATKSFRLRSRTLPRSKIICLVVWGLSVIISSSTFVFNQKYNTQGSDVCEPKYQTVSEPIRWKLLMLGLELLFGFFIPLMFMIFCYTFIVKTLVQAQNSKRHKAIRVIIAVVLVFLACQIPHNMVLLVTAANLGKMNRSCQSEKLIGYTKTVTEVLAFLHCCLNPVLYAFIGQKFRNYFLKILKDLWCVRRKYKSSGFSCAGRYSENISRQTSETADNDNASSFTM
In short: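 Dye-loaded HEK-293 cells expressing human CCR6 were preincubated with compound for 30 min at room temperature in the dark, then challenged with 10 nM CCL20 (final). Fluorescence was tracked on FLIPR, and baseline-subtracted peak emission over base after agonist addition gave inhibition dose-response curves for IC50.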

| SMILES | IC50 |
| --- | --- |
| CC(C)c1ccc([C@](O)(c2ccnc(N3CCCC3)c2)C2(C)CN(C)C2)cc1 [Example 273, (S)-(1,3-Dimethyl-azetidin-3-yl)-(4-isopropyl-phenyl)-(2-pyrrolidin-1-yl-pyridin-4-yl)-methanol] | 0.032 µM |
| CC(C)c1ccc(C(O)(c2ccnc(N3CCC[C@@H]3CO)c2)C2(C)CN(C)C2)cc1 (stereo partly shown) [Example 274] | 0.252 µM |
| CC(C)c1ccc(C(O)(c2ccnc(N3CCCCC3)c2)C2(C)CN(C)C2)cc1 (stereo not shown) [Example 275] | 0.0671 µM |
| CC(C)c1ccc(C(O)(c2ccnc(N3CCOCC3)c2)C2(C)CN(C)C2)cc1 (stereo not shown) [Example 276] | 0.413 µM |
| CC(C)c1ccc([C@](O)(c2ccnc(OCC3CCOCC3)c2)C2(C)CN(C)C2)cc1 [Example 277, (S)-(1,3-Dimethyl-azetidin-3-yl)-(4-isopropyl-phenyl)-[2-(tetrahydro-pyran-4-ylmethoxy)-pyridin-4-yl]-methanol] | 0.0422 µM |
| COCCOc1cc([C@@](O)(c2ccc(C(C)C)cc2)C2(C)CN(C)C2)ccn1 [Example 278, (S)-(1,3-Dimethyl-azetidin-3-yl)-(4-isopropyl-phenyl)-[2-(2-methoxy-ethoxy)-pyridin-4-yl]-methanol] | 0.0489 µM |
| CCc1cc([C@@](O)(c2ccc(C(C)C)cc2)C2(C)CN(C)C2)ccn1 [Example 279, (S)-(1,3-Dimethyl-azetidin-3-yl)-(2-ethyl-pyridin-4-yl)-(4-isopropyl-phenyl)-methanol] | 0.166 µM |
| CC(C)c1ccc([C@](O)(c2ccnc(C3CCCC3)c2)C2(C)CN(C)C2)cc1 [Example 280, (S)-(2-Cyclopentyl-pyridin-4-yl)-(1,3-dimethyl-azetidin-3-yl)-(4-isopropyl-phenyl)-methanol] | 0.0374 µM |
| CN1CC(C)([C@](O)(c2ccc(C(F)(F)F)cc2)c2cncc(N3CCCC3)c2)C1 [Example 281, (R)-(1,3-Dimethyl-azetidin-3-yl)-(5-pyrrolidin-1-yl-pyridin-3-yl)-(4-trifluoromethyl-phenyl)-methanol] | 0.0822 µM |
| CC(C)c1ccc([C@](O)(c2cncc(N3CC[C@@](C)(CO)C3)c2)C2(C)CN(C)C2)cc1 [Example 282] | 0.0443 µM |
| CC(C)c1ccc([C@](O)(c2cncc(N3CC[C@H](F)C3)c2)C2(C)CN(C)C2)cc1 [Example 283] | 0.0616 µM |
| CC(C)c1ccc([C@](O)(c2cncc(-n3cc(C4CCOCC4)nn3)c2)C2(C)CN(C)C2)cc1 [Example 284, (R)-(1,3-Dimethyl-azetidin-3-yl)-(4-isopropyl-phenyl)-{5-[4-(tetrahydro-pyran-4-yl)-[1,2,3]triazol-1-yl}-pyridin-3-yl]-methanol] | 0.222 µM |
| CC(C)c1ccc(C(O)(c2cncc(C(C)C)c2)C2(C)CN(C)C2)cc1 (stereo not shown) [Example 290] | 0.1 µM |
| CC(C)c1ccc([C@](O)(c2cccnc2)C2(C)CN(C)C2)cc1 [Example 293] | 0.246 µM |
| CC(C)c1ccc([C@](O)(c2cncc([C@H]3CCC(C)(O)C3)c2)C2(C)CN(C)C2)cc1 (stereo partly drawn) [Example 296, (3S)-3-(5-((R)-(1,3-dimethylazetidin-3-yl)(hydroxy)(4-isopropylphenyl)methyl)pyridin-3-yl)-1-methylcyclopentan-1-ol] | 0.118 µM |
| CCC1(O)CCC(c2cncc([C@@](O)(c3ccc(C(C)C)cc3)C3(C)CN(C)C3)c2)C1 (stereo partly drawn) [Example 298, 3-{5-[(R)-(1,3-Dimethyl-azetidin-3-yl)-hydroxy-(4-isopropyl-phenyl)-methyl]-pyridin-3-yl}-1-ethyl-cyclopentanol] | 0.0652 µM |
| CC(C)c1ccc([C@](O)(c2cncc(C3CCC(O)(C(C)C)C3)c2)C2(C)CN(C)C2)cc1 (stereo partly drawn) [Example 299, 3-{5-[(R)-(1,3-Dimethyl-azetidin-3-yl)-hydroxy-(4-isopropyl-phenyl)-methyl]-pyridin-3-yl}-1-isopropyl-cyclopentanol] | 0.0806 µM |
| C=C(CCO)c1cncc([C@@](O)(c2ccc(C(C)C)cc2)C2(C)CN(C)C2)c1 [Example 305, 3-{5-[(R)-(1,3-Dimethyl-azetidin-3-yl)-hydroxy-(4-isopropyl-phenyl)-methyl]-pyridin-3-yl}-but-3-en-1-ol] | 0.121 µM |
| CC(C)c1ccc([C@](O)(c2cncc(C(=O)NC3CCCC3)c2)C2(C)CN(C)C2)cc1 [Example 306, N-Cyclopentyl-5-[(R)-(1,3-dimethyl-azetidin-3-yl)-hydroxy-(4-isopropyl-phenyl)-methyl]-nicotinamide] | 0.101 µM |
| CC(C)c1ccc([C@](O)(c2cncc(C(=O)N3CCCC3)c2)C2(C)CN(C)C2)cc1 [Example 307] | 0.567 µM |
| CC(C)c1ccc([C@](O)(c2cncc(C(=O)NC3CCOCC3)c2)C2(C)CN(C)C2)cc1 [Example 308] | 0.515 µM |
| COCCCc1ccc(C(O)(c2cncc(N3CCCC3)c2)C2(C)CN(C)C2)cc1 (stereo not shown) [Example 309, (1,3-Dimethyl-azetidin-3-yl)-[4-(3-methoxy-propyl)-phenyl]-(5-pyrrolidin-1-yl-pyridin-3-yl)-methanol] | 0.0586 µM |
| CN1CC(C)([C@](O)(c2ccc(C3CC3)cc2)c2cncc(N3CCCC3)c2)C1 [Example 310] | 0.0486 µM |
| Cc1ccc([C@](O)(c2cncc(N3CCCC3)c2)C2(C)CN(C)C2)cc1 [Example 311] | 0.14 µM |
| CC(C)c1ccc([C@](O)(c2cncc(C3CCN(C(=O)OC(C)(C)C)CC3)c2)C2(C)CN(C)C2)cc1 [Example 312, 5-[(R)-(1,3-Dimethyl-azetidin-3-yl)-hydroxy-(4-isopropyl-phenyl)-methyl]-3′,4′,5′,6′-tetrahydro-2′H-[3,4′]bipyridinyl-1′-carboxylic acid tert-butyl ester] | 0.0239 µM |
| CC(C)c1ccc([C@](O)(c2cncc(C3CCN(C(=O)OC(C)(C)C)C3)c2)C2(C)CN(C)C2)cc1 (stereo partly shown) [Example 313] | 0.158 µM |
| CC(C)c1ccc([C@](O)(c2cncc(C3CCOCC3)c2)C2(C)CN(C)C2)cc1 [Example 314] | 0.111 µM |
| CC(C)c1ccc([C@](O)(c2cncc(C3CCN(c4ccccn4)CC3)c2)C2(C)CN(C)C2)cc1 [Example 315, (R)-(1,3-Dimethyl-azetidin-3-yl)-(4-isopropyl-phenyl)-(3′,4′,5′,6′-tetrahydro-2′H-[2,1′; 4′,3″]terpyridin-5″-yl)-methanol] | 0.0236 µM |

Second part, the molecule after the results:

| IC50 | SMILES |
| --- | --- |
| 0.078 µM | Cc1cncc(C(O)(c2ccc(C(C)C)cc2)C2(C)CN(C)C2)c1 (stereo not shown) [Example 285] |
| 0.0363 µM | C=C(C)c1cncc(C(O)(c2ccc(C(C)C)cc2)C2(C)CN(C)C2)c1 (stereo not shown) [Example 286] |
| 0.0428 µM | CC(C)c1ccc(C(O)(c2cncc(C3CC3)c2)C2(C)CN(C)C2)cc1 (stereo not shown) [Example 287] |
| 0.0339 µM | CC(C)c1ccc(C(O)(c2cncc(C3=CCCC3)c2)C2(C)CN(C)C2)cc1 (stereo not shown) [Example 288] |
| 0.0824 µM | CC(C)c1ccc(C(O)(c2cncc(C3=CC(O)CC3)c2)C2(C)CN(C)C2)cc1 (stereo not shown) [Example 289, 3-{5-[(1,3-Dimethyl-azetidin-3-yl)-hydroxy-(4-isopropyl-phenyl)-methyl]-pyridin-3-yl}-cyclopent-2-enol] |
| 0.0248 µM | CC(C)c1ccc(C(O)(c2cncc(C3CCCC3)c2)C2(C)CN(C)C2)cc1 (stereo not shown) [Example 291] |
| 0.748 µM | CC(C)c1ccc(C(O)(c2cncc(C3CCC(O)C3)c2)C2(C)CN(C)C2)cc1 (stereo not shown) [Example 292] |
| 0.0494 µM | CC(C)c1ccc([C@](O)(c2cncc(C3=CC(=O)CC3)c2)C2(C)CN(C)C2)cc1 [Example 294, 3-{5-[(R)-(1,3-Dimethyl-azetidin-3-yl)-hydroxy-(4-isopropyl-phenyl)-methyl]-pyridin-3-yl}-cyclopent-2-enone] |
| 0.0611 µM | CC(C)c1ccc([C@](O)(c2cncc(C3=CC(C)(O)CC3)c2)C2(C)CN(C)C2)cc1 (stereo partly drawn) [Example 295, 3-{5-[(R)-(1,3-Dimethyl-azetidin-3-yl)-hydroxy-(4-isopropyl-phenyl)-methyl]-pyridin-3-yl}-1-methyl-cyclopent-2-enol] |
| 0.0408 µM | Cc1coc(-c2cncc([C@@](O)(c3ccc(C(C)C)cc3)C3(C)CN(C)C3)c2)n1 [Example 300, (R)-(1,3-Dimethyl-azetidin-3-yl)-(4-isopropyl-phenyl)-[5-(4-methyl-oxazol-2-yl)-pyridin-3-yl]-methanol] |
| 0.06 µM | CCc1cncc([C@@](O)(c2ccc(C(C)C)cc2)C2(C)CN(C)C2)c1 [Example 301, (R)-(1,3-Dimethyl-azetidin-3-yl)-(5-ethyl-pyridin-3-yl)-(4-isopropyl-phenyl)-methanol] |
| 0.0445 µM | Cc1cncc([C@@](O)(c2ccc(C(C)C)cc2)C2(C)CN(C)C2)c1 [Example 302, (R)-(1,3-Dimethyl-azetidin-3-yl)-(4-isopropyl-phenyl)-(5-methyl-pyridin-3-yl)-methanol] |
| 0.0307 µM | CC(C)c1ccc([C@](O)(c2cncc(C3=COCC3)c2)C2(C)CN(C)C2)cc1 [Example 303, (R)-[5-(4,5-Dihydro-furan-3-yl)-pyridin-3-yl]-(1,3-dimethyl-azetidin-3-yl)-(4-isopropyl-phenyl)-methanol] |
| 0.385 µM | CC(C)c1ccc([C@](O)(c2cncc(C3CCOC3)c2)C2(C)CN(C)C2)cc1 (stereo partly drawn) [Example 304, (R)-(1,3-Dimethyl-azetidin-3-yl)-(4-isopropyl-phenyl)-[5-(tetrahydro-furan-3-yl)-pyridin-3-yl]-methanol] |
| 0.154 µM | CC(C)c1ccc([C@](O)(c2cncc(C3CCCO3)c2)C2(C)CN(C)C2)cc1 (stereo partly drawn) [Example 318, (R)-(1,3-Dimethyl-azetidin-3-yl)-(4-isopropyl-phenyl)-[5-(tetrahydro-furan-2-yl)-pyridin-3-yl]-methanol] |
